The results in this text go back to paper PMC3688767, “Lipoprotein FtsB in Streptococcus pyogenes Binds Ferrichrome in Two Steps with Residues Tyr137 and Trp204 as Critical Ligands” (PLoS ONE, 2013).

Assay [1] addresses T1, WT FtsB (Streptococcus pyogenes, UniProt Q9A198). Description: Fluorescence quenching titration of ferrichrome binding, Hill plot. As to the method: (§1) The interaction between FtsB and Fch was investigated in a fluorescence spectroﬂuorimeter (Hitachi F7000), in which the excitation wavelength was 280 nm (slit width of 2.5 nm) and the emission wavelength was between 290 and 500 nm (slit width of 10 nm). Aliquots of Fch (1 mM stock solution) were gradually added to 1 mL FtsB solution (1.5 µM, in 20 mM Tris–HCl, pH 7.2). Fluorescence spectra were collected after each titration until the spectra were stable. The data were analyzed with Hill plot in Origin 7.5 to acquire the binding capability and dissociation constant (K d). pH dependent Fch binding with FtsB was also examined in the same buffer with pH 3.2–9.2.

In assay [2] the target is T2, FtsB Tetra mutant E120A/Y137A/W204A/Y287A (Streptococcus pyogenes, UniProt Q9A198, E120A/W204A/Y137A/Y287A).
T2 sequence (Q9A198 21-310 E120A/Y137A/W204A/Y287A): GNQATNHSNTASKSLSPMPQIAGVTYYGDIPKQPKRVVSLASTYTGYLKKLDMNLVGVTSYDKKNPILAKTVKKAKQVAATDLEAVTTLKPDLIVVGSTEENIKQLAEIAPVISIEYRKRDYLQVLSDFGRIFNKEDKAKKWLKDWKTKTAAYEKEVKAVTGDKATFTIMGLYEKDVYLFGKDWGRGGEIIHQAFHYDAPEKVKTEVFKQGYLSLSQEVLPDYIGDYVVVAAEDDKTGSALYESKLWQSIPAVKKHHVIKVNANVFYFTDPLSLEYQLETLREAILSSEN
The description is as above. The note with it: 20 mM Tris-HCl, pH 7.2, may be no-specific interaction, read-out: Dissociation constant K d. As to the method: (§2) E120A, Y137A, W204A and Y287A mutants were constructed by QuikChange mutagenesis kit (Stratagene) with the wild-type ftsb plasmid as a template, using primers summarized in Table 1. To further study the collective contribution of Glu120, Tyr137, Trp204 and Tyr287 to the Fch binding of FtsB, a tetra-point mutation E120A/Y137A/W204A/Y287A was produced by mutating these four amino acids to alanine simultaneously. The PCR reactions were performed as follows: denaturation at 95°C for 30 s, followed by 16 cycles with denaturation at 95°C for 30 s, annealing at 55°C for 1 min, and extension at 68°C for 6 min [14]. The mutant plasmids were transformed into E. coli XL1-blue for sequencing (Invitrogen). The mutant plasmid with correct sequence was transformed into E. coli BL21 (DE3) star competent cells for subsequent expression. Expression and purification of the FtsB mutants were carried out by following the same protocol as for the wild-type protein.
as §1

Another assay addresses T3, FtsB mutant E120A (Streptococcus pyogenes, UniProt Q9A198, E120A).
T3 sequence (Q9A198 21-310 E120A): T2 sequence (Q9A198 21-310 E120A/Y137A/W204A/Y287A)
The assay is described as above. The note with it: 20 mM Tris-HCl, pH 7.2, read-out: Dissociation constant K d. As for the experimental part:
as §2, §1

The target of another assay is T4, FtsB mutant W204A (Streptococcus pyogenes, UniProt Q9A198, W204A).
T4 sequence (Q9A198 21-310 W204A): T2 sequence (Q9A198 21-310 E120A/Y137A/W204A/Y287A)
Described as above. As to the method:
as §2, §1

Assay [3] deals with T5, FtsB mutant Y137A (Streptococcus pyogenes, UniProt Q9A198, Y137A).
T5 sequence (Q9A198 21-310 Y137A): T2 sequence (Q9A198 21-310 E120A/Y137A/W204A/Y287A)
The assay is described as above. As to the method: as §2, §1

In another assay the target is T6, FtsB mutant Y287A (Streptococcus pyogenes, UniProt Q9A198, Y287A).
T6 sequence (Q9A198 21-310 Y287A): T2 sequence (Q9A198 21-310 E120A/Y137A/W204A/Y287A)
Described as above. The note with it: 20 mM Tris-HCl, pH 7.2, read-out: Dissociation constant K d. As to the method: as §2, §1

Assay [4] concerns the target T5, FtsB mutant Y137A. Description: Stopped-flow fluorescence binding kinetics. To be noted: Y137A 10 µM mixed with Fch 1∶1, 25°C, pH 7.2, first-order exponential fit; listed as Fch. As to the method: (§3) Binding kinetics experiments were carried out using a stopped-ﬂow ﬂuorescence spectrometer (Applied Photophysics, SX200) at 25°C. The excitation wavelength was 280 nm and the ﬂuorescence emission was measured using a high-pass filter with a 320 nm cutoff. Binding reaction was initiated by mixing 10 µM FtsB in 20 mM Tris-HCl (pH 7.2) with Fch in a 1∶1 ratio. Kinetics experiments were performed 5 times, and data were analyzed with a second-order or first-order exponential function offered by Origin 7.5 software.

The target of assay [5] is T1, WT FtsB. Put plainly: Stopped-flow fluorescence binding kinetics. To be noted: WT FtsB 10 µM mixed with Fch 1∶1, 25°C, pH 7.2, second-order exponential fit; listed as Fch. As to the method:
as §3

“And” between values parts separate entries of the source, which are not always exact repeats. Equal entries are not always repeated. Square brackets hold non-standard residues; d marks the D form. Peptide text beside a SMILES is read from it. Orn(N5-OH,N5-Ac) = CC(=O)N(O)CCC[C@H](N)C(=O)O

On to `CC(=O)N([O-])CCC[C@@H]1NC(=O)CNC(=O)CNC(=O)CNC(=O)[C@H](CCCN([O-])C(C)=O)NC(=O)[C@H](CCCN([O-])C(C)=O)NC1=O.[Fe+3]` [ferrichrome, Ferrichrome] (cyclo(GGG[Orn(N5-OH,N5-Ac)][Orn(N5-OH,N5-Ac)][Orn(N5-OH,N5-Ac)])), for which the Kd on WT FtsB [1] (WT FtsB 1.5 µM, 20 mM Tris-HCl, pH 7.2, read-out: Dissociation constant K d) came to 400 ± 20 nM; in assay [2] it was 43900 ± 2500 nM; at FtsB mutant E120A, 520 ± 30 nM; at FtsB mutant W204A (W204A mutant, 20 mM Tris-HCl, pH 7.2, read-out: Dissociation constant K d), 7050 ± 80 nM; at FtsB mutant Y137A [3] (Y137A mutant, 20 mM Tris-HCl, pH 7.2, read-out: Dissociation constant K d), 3700 ± 100 nM; on FtsB mutant Y287A, 520 ± 20 nM. In addition, the “pH of maximal binding” value on WT FtsB [1] (pH dependence examined at pH 3.2–9.2) is given as 7.2. In addition, the “folds higher K d in comparison with WT” value on FtsB mutant W204A (W204A mutant vs WT FtsB) and on FtsB mutant Y137A [3] (Y137A mutant vs WT FtsB) was 10–20 folds in each case. At FtsB mutant Y137A [4], the rate constant k was 191.6 ± 7.6 s⁻¹ and 191 s⁻¹. Besides, the “fast rate constant k1” value on WT FtsB [5] was 180.2 ± 5.4 s⁻¹ and 180 s⁻¹. Moreover, at WT FtsB [5], the “slow rate constant k2” value was found to be 18.7 ± 1.3 s⁻¹.
